SMILES strings stand for the structures.

Usually IC50 stands for the concentration that gives 50% inhibition.

One assay addresses T1, MMP-9 (gelatinase B) (Homo sapiens, UniProt P14780).
T1 construct: purchased Yagai Co. Ltd; host or cells: human fibrosarcoma
Description: MMP-9 (gelatinase B) inhibitory activity, FITC-labeled type IV collagen degradation. Format: biochemical. To be noted: 50% inhibition of collagen type IV degradation; MMP-9 derived from human fibrosarcoma; 42° C., 4 h. The method, then: (§1) Experiment 2: MMP-2 (gelatinase A) and MMP-9 (gelatinase B) inhibitory activities.
(§2) Pro MMP-2 was obtained from culture medium separated from human pro-MMP-2 cDNA tranfected COS-1 cells. It was activated by 1 mM (p-aminophenyl)mercury acetic acid, and MMP-9, derived human fibrosarcome,was purchased from Yagai Co. Ltd. Inhibition of both enzyme activities were estimated by enzyme assay using type IV collagenase activity assay kit (Yagai Co. Ltd., Biswaz, C. et al., J. Cell.Biochem., 28, 39 (1984)). MMP-2 or MMP-9 (0.01 U/ml), test compound (several concentrations), and FITC-labeled type IV collagen (derived bovine placenta, 25 μg) were incubated in 100 μl of 0.05M Tris - HCl buffer (pH 7.5) containing 200 mM NaCl and 5 mM CaCl2 at 42° C. for 4 h. Inhibitory activity of compound was evaluated by same as that of MMP-1 assay. Unchanged type IV collagen was precipitated by centrifugation, and the degradation percent of substrate was calculated by comparison with a fluorescence intensity of heat denatured substrate as 100%. Inhibition of enzyme activity was expressed as an IC50 value which was the concentration of test compound necessary to produce 50% inhibition of collagen type IV degradation by enzyme.

Another assay deals with T2, MMP-2 (gelatinase A) (Homo sapiens, UniProt P08253).
T2 construct: made in house; host or cells: COS-1 cells transfected with human pro-MMP-2 cDNA (secreted into culture medium)
T2 sequence (P08253 110-660): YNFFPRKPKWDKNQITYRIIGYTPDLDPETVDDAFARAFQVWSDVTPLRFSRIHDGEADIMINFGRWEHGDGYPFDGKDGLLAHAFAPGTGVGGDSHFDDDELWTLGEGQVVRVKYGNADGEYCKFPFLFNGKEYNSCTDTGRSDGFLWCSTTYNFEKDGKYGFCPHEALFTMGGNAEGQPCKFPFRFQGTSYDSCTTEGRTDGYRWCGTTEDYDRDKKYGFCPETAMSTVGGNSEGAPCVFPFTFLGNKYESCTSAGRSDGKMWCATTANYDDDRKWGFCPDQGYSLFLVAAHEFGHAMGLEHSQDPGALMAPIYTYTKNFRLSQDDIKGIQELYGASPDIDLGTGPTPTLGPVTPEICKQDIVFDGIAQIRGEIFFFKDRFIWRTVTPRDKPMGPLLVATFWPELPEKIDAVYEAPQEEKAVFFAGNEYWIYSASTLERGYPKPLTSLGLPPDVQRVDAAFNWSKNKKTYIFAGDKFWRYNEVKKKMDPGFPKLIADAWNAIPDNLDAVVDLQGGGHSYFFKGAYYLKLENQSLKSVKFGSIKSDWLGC
In words: MMP-2 (gelatinase A) inhibitory activity, FITC-labeled type IV collagen degradation. Format: biochemical. The note with it: 50% inhibition of collagen type IV degradation; activated pro MMP-2 from transfected COS-1 cells; 42° C., 4 h. The method, then: as §1, §2

T1 sequence (P14780 94-707): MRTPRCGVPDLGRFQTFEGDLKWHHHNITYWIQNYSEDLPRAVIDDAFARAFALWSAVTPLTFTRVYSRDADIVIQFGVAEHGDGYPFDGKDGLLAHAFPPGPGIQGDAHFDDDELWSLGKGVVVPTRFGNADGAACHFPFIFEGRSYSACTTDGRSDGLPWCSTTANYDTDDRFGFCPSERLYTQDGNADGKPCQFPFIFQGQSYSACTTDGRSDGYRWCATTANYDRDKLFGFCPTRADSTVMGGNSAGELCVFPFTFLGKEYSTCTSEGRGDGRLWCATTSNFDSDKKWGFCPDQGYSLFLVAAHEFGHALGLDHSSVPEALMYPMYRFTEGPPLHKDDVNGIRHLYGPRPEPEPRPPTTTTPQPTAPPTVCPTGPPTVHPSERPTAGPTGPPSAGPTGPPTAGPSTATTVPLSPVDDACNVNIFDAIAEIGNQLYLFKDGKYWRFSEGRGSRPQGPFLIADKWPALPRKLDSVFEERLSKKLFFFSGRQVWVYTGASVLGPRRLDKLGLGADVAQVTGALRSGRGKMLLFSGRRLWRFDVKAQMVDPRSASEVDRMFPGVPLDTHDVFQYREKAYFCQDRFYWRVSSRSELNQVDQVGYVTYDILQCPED

On to `CNC(=O)[C@H](Cc1ccccc1)NC(=O)[C@H](CCc1ccc2cccccc1-2)CC(=O)NO` [Compound 32, N-[(2R)-2-(2'-Hydroxyamino-2'-oxo-ethyl)-4-(azulene-1-yl)-butyloyl]-L-phenylanine N-Methylamide], for which the figures for the concentration for half-maximal inhibition (IC50) against MMP-9 (gelatinase B) and at MMP-2 (gelatinase A) were 400 nM and 3200 nM, respectively.
With `CNC(=O)[C@H](Cc1ccc(OC)cc1)NC(=O)[C@H](CCc1ccc2cccccc1-2)CC(=O)NO` [Compound 33, (2S)-2-[(2R)-2-(2'-Hydroxyamino-2'-oxo-ethyl)-4-(azulene-1-yl)butyloyl]amino-3-(4-methoxy)phenylpropanoylmethylamide], the IC50 against MMP-9 (gelatinase B) was determined as 18 nM; on MMP-2 (gelatinase A), 160 nM.
The matching figures for `CNC(=O)[C@@H](NC(=O)[C@H](CCc1ccc2cccccc1-2)CC(=O)NO)C(C)(C)C` [Compound 34, N-[(2R)-2-(2'-Hydroxyamino-2'-oxo-ethyl)-4-(azulene-1-yl)-butyloyl]-L-tert-leucine N-Methylamide]: 52 nM and 760 nM.
The matching figures for `CNC(=O)[C@H](Cc1ccccc1)NC(=O)[C@H](CCCc1ccc2cccccc1-2)CC(=O)NO` [Compound 35, N-[(2R)-2-(2'-Hydroxyamino-2'-oxo-ethyl)-5-(azulene-1-yl)-pentanoyl]-L-phenylalanine N-Methylamide]: 2500 nM and 1300 nM.
The like results for `CCOc1ccc(C[C@H](NC(=O)[C@H](CCc2ccc3cccccc2-3)CC(=O)NO)C(=O)NC)cc1` [Compound 36, (2S)-2-[(2R)-2-(2'-Hydroxyamino-2'-oxo-ethyl)-4-(azulene-1-yl)butyloyl]amino-3-(4-ethoxy)phenylpropanoylmethylamide] were, in that order, 24 nM and 180 nM.
Take `CNC(=O)[C@H](Cc1ccccc1)NC(=O)[C@H](CCCCc1ccc2cccccc1-2)CC(=O)NO` [Compound 37, N-[(2R)-2-(2'-Hydroxyamino-2'-oxo-ethyl)-6-(azulene-1-yl)-hexanoyl]-L-phenylalanine N-Methylamide]: the IC50 amounted to 2900 nM against MMP-9 (gelatinase B) and 2700 nM against MMP-2 (gelatinase A).
Take `CNC(=O)[C@H](Cc1ccccc1)NC(=O)[C@H](CCOc1ccc(OC)cc1)CC(=O)NO` [Compound 38, N-[(2R)-2-(2'-Hydroxyamino-2'-oxo-ethyl)-4-[(4-methoxyphenyl)oxy]butyloyl]-L-phenylalanine N-Methylamide]: the IC50 against MMP-9 (gelatinase B) was 2.3 nM; against MMP-2 (gelatinase A) it was 13 nM.
The matching figures for `CCOc1ccc(OCC[C@H](CC(=O)NO)C(=O)N[C@@H](Cc2ccccc2)C(=O)NC)cc1` [Compound 39, N-[(2R)-2-(2'-Hydroxyamino-2'-oxo-ethyl)-4-[(4-ethoxy-phenyl)oxy]butyloyl]-L-phenylalanine N-Methylamide]: 1.4 nM and 8.8 nM.
`CNC(=O)[C@H](Cc1ccccc1)NC(=O)[C@H](CCCOc1ccc(OC)cc1)CC(=O)NO` [Compound 40, N-[(2R)-2-(2'-Hydroxyamino-2'-oxo-ethyl)-5-[(4-methoxyphenyl)oxy]pentanoyl]-L-phenylalanine N-Methylamide]: the IC50 on MMP-9 (gelatinase B) was determined as 0.18 nM; against MMP-2 (gelatinase A), 1 nM.
Regarding `COc1ccc(OCCC[C@H](CC(=O)NO)C(=O)N[C@@H](Cc2ccccc2)C(=O)NC(C)(C)C)cc1` [Compound 41, N-[(2R)-2-(2'-Hydroxyamino-2'-oxo-ethyl)-5-[(4-methoxyphenyl)oxy]pentanoyl]-L-phenylalanine N-tert-Butylamide], the figures for the IC50 against MMP-9 (gelatinase B) and on MMP-2 (gelatinase A) were 0.13 nM and 3.1 nM, respectively.
The matching figures for `COc1ccc(OCCC[C@H](CC(=O)NO)C(=O)N[C@@H](Cc2ccccc2)C(=O)NCCS(N)(=O)=O)cc1` [Compound 42, 2-[N-[(2R)-2-(2'-Hydroxyamino-2'-oxo-ethyl)-5-[(4-methoxyphenyl)oxy]pentanoyl]-L-phenylalanyl]amino-ethanesulfonamide]: 0.051 nM and 0.36 nM.
As to `CCOc1ccc(OCCC[C@H](CC(=O)NO)C(=O)N[C@@H](Cc2ccccc2)C(=O)NC)cc1` [Compound 43, N-[(2R)-2-(2'-Hydroxyamino-2'-oxo-ethyl)-5-[(4-ethoxy-phenyl)oxy]pentanoyl]-L-phenylalanine N-Methylamide], the IC50 against MMP-9 (gelatinase B) worked out at 0.14 nM; against MMP-2 (gelatinase A), 0.97 nM.
The like results for `CNC(=O)[C@H](Cc1ccccc1)NC(=O)[C@H](CCCCOc1ccc(OC)cc1)CC(=O)NO` [Compound 44, N-[(2R)-2-(2'-Hydroxyamino-2'-oxo-ethyl)-6-[(4-methoxyphenyl)oxy]hexanoyl]-L-phenylalanine N-Methylamide] were, in that order, 0.41 nM and 1.3 nM.
With `CCOc1ccc(OCCCC[C@H](CC(=O)NO)C(=O)N[C@@H](Cc2ccccc2)C(=O)NC)cc1` [Compound 45, N-[(2R)-2-(2'-Hydroxyamino-2'-oxo-ethyl)-6-[(4-ethoxy-phenyl)oxy]hexanoyl]-L-phenylalanine N-Methylamide], the IC50 on MMP-9 (gelatinase B) was found to be 0.72 nM; at MMP-2 (gelatinase A) it was 4 nM.
The matching figures for `C=CCOc1ccc(OCCCC[C@H](CC(=O)NO)C(=O)N[C@@H](Cc2ccccc2)C(=O)NC)cc1` [Compound 46, N-[(2R)-2-(2'-Hydroxyamino-2'-oxo-ethyl)-6-[(4-allyloxy-phenyl)oxy]hexanoyl]-L-phenylalanine N-Methylamide]: 160 nM and 250 nM.
As to `CNC(=O)[C@H](Cc1ccc(OC)cc1)NC(=O)[C@H](CCOc1ccc(OC)cc1)CC(=O)NO` [Compound 47, (2S)-2-[(2R)-2-(2'-Hydroxyamino-2'-oxo-ethyl)-4-[(4-methoxyphenyl)oxy]-butyloyl]amino-3-(4-methoxy)phenylpropanoylmethylamide], the values for the IC50 against MMP-9 (gelatinase B) and at MMP-2 (gelatinase A) were 1.2 nM and 11 nM, respectively.
The like results for `CNC(=O)[C@H](Cc1ccc(OC)cc1)NC(=O)[C@H](CCCOc1ccc(OC)cc1)CC(=O)NO` [Compound 48, (2S)-2-[(2R)-2-(2'-Hydroxyamino-2'-oxo-ethyl)-5-[(4-methoxyphenyl)oxy]-pentanoyl]amino-3-(4-methoxy)phenyl-propanoylmethylamide] were, in that order, 0.15 nM and 9 nM.
The matching figures for `COc1ccc(C[C@H](NC(=O)[C@H](CCCOc2ccc(OC)cc2)CC(=O)NO)C(=O)NC(C)(C)C)cc1` [Compound 49, (2S)-2-[(2R)-2-(2'-Hydroxyamino-2'-oxo-ethyl)-5-[(4-methoxyphenyl)oxy]-pentanoyl]amino-3-(4-methoxy)phenyl-propanoyl-tert-butylamide]: 0.42 nM and 26 nM.
The matching figures for `COc1ccc(C[C@H](NC(=O)[C@H](CCCOc2ccc(OC)cc2)CC(=O)NO)C(=O)NCCS(N)(=O)=O)cc1` [Compound 50, 2-[(2S)-2-[(2R)-2-(2'-Hydroxyamino-2'-oxo-ethyl)-5-[(4-methoxyphenyl)oxy]-pentanoyl]amino-3-(4-methoxy)phenylpropanoyl]amino-ethanesulfonamide]: 0.052 nM and 0.45 nM.
For `CNC(=O)[C@H](Cc1ccc(OC)cc1)NC(=O)[C@H](CCCCOc1ccc(OC)cc1)CC(=O)NO` [Compound 51, (2S)-2-[(2R)-2-(2'-Hydroxyamino-2'-oxo-ethyl)-6-[(4-methoxyphenyl)oxy]-hexanoyl]amino-3-(4-methoxy)phenylpropanoylmethylamide], the IC50 on MMP-9 (gelatinase B) came out at 0.28 nM; at MMP-2 (gelatinase A), 2.5 nM.
The like results for `CCOc1ccc(C[C@H](NC(=O)[C@H](CCCOc2ccc(OC)cc2)CC(=O)NO)C(=O)NC)cc1` [Compound 52, (2S)-2-[(2R)-2-(2'-Hydroxyamino-2'-oxo-ethyl)-5-[(4-methoxyphenyl)oxy]-pentanoyl]amino-3-(4-ethoxy)phenylpropanoylmethylamide] were, in that order, 0.12 nM and 1 nM.
The like results for `CCOc1ccc(C[C@H](NC(=O)[C@H](CCCCOc2ccc(OC)cc2)CC(=O)NO)C(=O)NC)cc1` [Compound 53, (2S)-2-[(2R)-2-(2'-Hydroxyamino-2'-oxo-ethyl)-6-[(4-methoxyphenyl)oxy]-hexanoyl]amino-3-(4-ethoxy)phenylpropanoylmethylamide] were, in that order, 0.32 nM and 3.2 nM.

The values are drawn from patent US5990158A, “Carboxylic acid derivatives, method of manufacturing the same and therapeutic agents containing these compounds” (Kotobuki Seiyaku Co., Ltd., priority 1996, dated 1999).
